Values quoted from earlier work as cited in patent publication US20150105473A1, “AN ANTIBACTERIAL COMPOSITION WITH LOW AMOUNTS OF SURFACTANT AND ANTIBACTERIAL ACTIVES” (The Dial Corporation, priority 2013, published 2015).

For Oc1cc(Cl)ccc1Oc1ccc(Cl)cc1Cl [triclosan], the solubility in water is listed as “poor solubility in water”.
